Measurements from PubChem BioAssay (NCI).
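Growth conditions: 96-well plates. Treatment: test compound, 48 hours, 5 concentrations. Analysis: linear interpolation between bracketing concentrations; unreached endpoints set to highest concentration. TGI marks complete inhibition of growth.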

Tests used:
Assay in all cases: growth of human tumour cells (NCI), 48 h
A498 renal = system: A498 renal
A549 NSCLC = system: A549 NSCLC
ACHN renal = system: ACHN renal
BT-549 breast = system: BT-549 breast
CAKI-1 renal = system: CAKI-1 renal
CCRF-CEM leukemia = system: CCRF-CEM leukemia
COLO 205 colon = system: COLO 205 colon
DU-145 prostate = system: DU-145 prostate
EKVX NSCLC = system: EKVX NSCLC
HCC-2998 colon = system: HCC-2998 colon
HCT-116 colon = system: HCT-116 colon
HCT-15 colon = system: HCT-15 colon
HL-60(TB) leukemia = system: HL-60(TB) leukemia
HOP-62 NSCLC = system: HOP-62 NSCLC
HOP-92 NSCLC = system: HOP-92 NSCLC
HS 578T breast = system: HS 578T breast
HT29 colon = system: HT29 colon
IGROV1 ovarian = system: IGROV1 ovarian
K-562 leukemia = system: K-562 leukemia
KM12 colon = system: KM12 colon
LOX IMVI melanoma = system: LOX IMVI melanoma
M14 melanoma = system: M14 melanoma
MALME-3M melanoma = system: MALME-3M melanoma
MCF7 breast = system: MCF7 breast
MDA-MB-231 breast = system: MDA-MB-231 breast
MDA-MB-435 = system: MDA-MB-435
MDA-N = system: MDA-N
MOLT-4 leukemia = system: MOLT-4 leukemia
NCI-H226 lung = system: NCI-H226 lung
NCI-H23 lung = system: NCI-H23 lung
NCI-H460 lung = system: NCI-H460 lung
NCI-H522 lung = system: NCI-H522 lung
NCI/ADR-RES ovarian = system: NCI/ADR-RES ovarian
OVCAR-3 ovarian = system: OVCAR-3 ovarian
OVCAR-4 ovarian = system: OVCAR-4 ovarian
OVCAR-5 ovarian = system: OVCAR-5 ovarian
OVCAR-8 ovarian = system: OVCAR-8 ovarian
PC-3 prostate = system: PC-3 prostate
RPMI-8226 leukemia = system: RPMI-8226 leukemia
RXF 393 renal = system: RXF 393 renal
SF-268 CNS = system: SF-268 CNS
SF-539 CNS = system: SF-539 CNS
SK-MEL-2 melanoma = system: SK-MEL-2 melanoma
SK-MEL-28 melanoma = system: SK-MEL-28 melanoma
SK-MEL-5 melanoma = system: SK-MEL-5 melanoma
SK-OV-3 ovarian = system: SK-OV-3 ovarian
SN12C renal = system: SN12C renal
SNB-19 CNS = system: SNB-19 CNS
SNB-75 CNS = system: SNB-75 CNS
SR leukemia = system: SR leukemia
SW-620 colon = system: SW-620 colon
T-47D breast = system: T-47D breast
TK-10 renal = system: TK-10 renal
U251 CNS = system: U251 CNS
UACC-257 melanoma = system: UACC-257 melanoma
UACC-62 melanoma = system: UACC-62 melanoma
UO-31 renal = system: UO-31 renal
786-0 renal = system: 786-0 renal
DLD-1 colon = system: DLD-1 colon
KM20L2 colon = system: KM20L2 colon
LXFL 529 NSCLC = system: LXFL 529 NSCLC
M19-MEL melanoma = system: M19-MEL melanoma
SF-295 CNS = system: SF-295 CNS
SNB-78 CNS = system: SNB-78 CNS
XF 498 CNS = system: XF 498 CNS

CC(NC(=O)C(NC(=O)C(NC(=O)C(F)(F)F)C(C)C)C(C)C)C(=O)Oc1c(Cl)c(Cl)c(Cl)c(Cl)c1Cl (stereo not given)
TGI (A498 renal): > 100 µM
TGI (A549 NSCLC): > 100 µM
TGI (ACHN renal): > 100 µM
TGI (BT-549 breast): > 100 µM
TGI (CAKI-1 renal): > 100 µM
TGI (CCRF-CEM leukemia): > 100 µM
TGI (COLO 205 colon): > 100 µM
TGI (DU-145 prostate): > 100 µM
TGI (EKVX NSCLC): > 100 µM
TGI (HCC-2998 colon): > 100 µM
TGI (HCT-116 colon): > 100 µM
TGI (HCT-15 colon): > 100 µM
TGI (HL-60(TB) leukemia): > 100 µM
TGI (HOP-62 NSCLC): > 100 µM
TGI (HOP-92 NSCLC): > 100 µM
TGI (HS 578T breast): > 100 µM
TGI (HT29 colon): > 100 µM
TGI (IGROV1 ovarian): > 100 µM
TGI (K-562 leukemia): > 100 µM
TGI (KM12 colon): > 100 µM
TGI (LOX IMVI melanoma): > 100 µM
TGI (M14 melanoma): > 100 µM
TGI (MALME-3M melanoma): > 100 µM
TGI (MCF7 breast): > 100 µM
TGI (MDA-MB-231 breast): > 100 µM
TGI (MDA-MB-435): > 100 µM
TGI (MDA-N): > 100 µM
TGI (MOLT-4 leukemia): > 100 µM
TGI (NCI-H226 lung): > 100 µM
TGI (NCI-H23 lung): > 100 µM
TGI (NCI-H460 lung): > 100 µM
TGI (NCI-H522 lung): > 100 µM
TGI (NCI/ADR-RES ovarian): > 100 µM
TGI (OVCAR-3 ovarian): > 100 µM
TGI (OVCAR-4 ovarian): > 100 µM
TGI (OVCAR-5 ovarian): > 100 µM
TGI (OVCAR-8 ovarian): > 100 µM
TGI (PC-3 prostate): > 100 µM
TGI (RPMI-8226 leukemia): > 100 µM
TGI (RXF 393 renal): > 100 µM
TGI (SF-268 CNS): > 100 µM
TGI (SF-539 CNS): > 100 µM
TGI (SK-MEL-2 melanoma): > 100 µM
TGI (SK-MEL-28 melanoma): > 100 µM
TGI (SK-MEL-5 melanoma): > 100 µM
TGI (SK-OV-3 ovarian): > 100 µM
TGI (SN12C renal): > 100 µM
TGI (SNB-19 CNS): > 100 µM
TGI (SNB-75 CNS): > 100 µM
TGI (SR leukemia): > 100 µM
TGI (SW-620 colon): > 100 µM
TGI (T-47D breast): > 100 µM
TGI (TK-10 renal): > 100 µM
TGI (U251 CNS): > 100 µM
TGI (UACC-257 melanoma): > 100 µM
TGI (UACC-62 melanoma): > 100 µM
TGI (UO-31 renal): > 100 µM

O=S1(=O)CC#CC[C@@H](CO)[C@@H](CO)CC#CC1
TGI (786-0 renal): > 100 µM
TGI (A549 NSCLC): > 100 µM
TGI (ACHN renal): > 100 µM
TGI (CCRF-CEM leukemia): 98.1 µM
TGI (DLD-1 colon): > 100 µM
TGI (EKVX NSCLC): > 100 µM
TGI (HCC-2998 colon): > 100 µM
TGI (HCT-116 colon): > 100 µM
TGI (HCT-15 colon): > 100 µM
TGI (HL-60(TB) leukemia): > 100 µM
TGI (HOP-62 NSCLC): > 100 µM
TGI (HOP-92 NSCLC): 90.3 µM
TGI (HT29 colon): > 100 µM
TGI (IGROV1 ovarian): > 100 µM
TGI (K-562 leukemia): > 100 µM
TGI (KM12 colon): > 100 µM
TGI (KM20L2 colon): > 100 µM
TGI (LOX IMVI melanoma): > 100 µM
TGI (LXFL 529 NSCLC): > 100 µM
TGI (M14 melanoma): > 100 µM
TGI (M19-MEL melanoma): > 100 µM
TGI (MALME-3M melanoma): 68.2 µM
TGI (MOLT-4 leukemia): > 100 µM
TGI (NCI-H23 lung): > 100 µM
TGI (NCI-H460 lung): > 100 µM
TGI (NCI-H522 lung): 32.6 µM
TGI (OVCAR-3 ovarian): > 100 µM
TGI (OVCAR-4 ovarian): > 100 µM
TGI (OVCAR-5 ovarian): > 100 µM
TGI (OVCAR-8 ovarian): > 100 µM
TGI (RXF 393 renal): > 100 µM
TGI (SF-295 CNS): > 100 µM
TGI (SF-539 CNS): > 100 µM
TGI (SK-MEL-2 melanoma): > 100 µM
TGI (SK-MEL-28 melanoma): > 100 µM
TGI (SK-MEL-5 melanoma): > 100 µM
TGI (SK-OV-3 ovarian): > 100 µM
TGI (SN12C renal): > 100 µM
TGI (SNB-75 CNS): > 100 µM
TGI (SNB-78 CNS): > 100 µM
TGI (SR leukemia): > 100 µM
TGI (SW-620 colon): > 100 µM
TGI (TK-10 renal): > 100 µM
TGI (U251 CNS): > 100 µM
TGI (UACC-257 melanoma): > 100 µM
TGI (UACC-62 melanoma): > 100 µM
TGI (UO-31 renal): > 100 µM
TGI (XF 498 CNS): > 100 µM
